How the values were obtained:
[1] = target: Histone deacetylase 9 (Homo sapiens, UniProt Q9UKV0); test: Inhibition of HDAC9 using p53 (379 to 382 residues) based fluorogenic peptide substrate
[2] = target: T1, Histone deacetylase 8 (Homo sapiens, UniProt Q9BY41); test: Inhibition of HDAC8 using p53 (379 to 382 residues) based fluorogenic peptide substrate
T1 sequence (Q9BY41 whole entry): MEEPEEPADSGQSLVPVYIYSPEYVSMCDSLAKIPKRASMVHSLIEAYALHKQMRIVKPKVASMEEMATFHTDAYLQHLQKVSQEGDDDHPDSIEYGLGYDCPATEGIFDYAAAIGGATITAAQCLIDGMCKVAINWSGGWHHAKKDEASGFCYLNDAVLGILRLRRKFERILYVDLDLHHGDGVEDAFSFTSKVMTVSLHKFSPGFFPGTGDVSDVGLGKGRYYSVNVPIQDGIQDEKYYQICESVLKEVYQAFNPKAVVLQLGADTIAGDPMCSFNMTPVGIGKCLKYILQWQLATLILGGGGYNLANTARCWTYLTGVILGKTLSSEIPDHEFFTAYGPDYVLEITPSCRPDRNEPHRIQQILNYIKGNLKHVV

[3] = target: T2, Polyamine deacetylase HDAC10 (Homo sapiens, UniProt Q969S8); test: Inhibition of HDAC10 using p53 (379 to 382 residues) based fluorogenic peptide substrate
T2 sequence (Q969S8 whole entry): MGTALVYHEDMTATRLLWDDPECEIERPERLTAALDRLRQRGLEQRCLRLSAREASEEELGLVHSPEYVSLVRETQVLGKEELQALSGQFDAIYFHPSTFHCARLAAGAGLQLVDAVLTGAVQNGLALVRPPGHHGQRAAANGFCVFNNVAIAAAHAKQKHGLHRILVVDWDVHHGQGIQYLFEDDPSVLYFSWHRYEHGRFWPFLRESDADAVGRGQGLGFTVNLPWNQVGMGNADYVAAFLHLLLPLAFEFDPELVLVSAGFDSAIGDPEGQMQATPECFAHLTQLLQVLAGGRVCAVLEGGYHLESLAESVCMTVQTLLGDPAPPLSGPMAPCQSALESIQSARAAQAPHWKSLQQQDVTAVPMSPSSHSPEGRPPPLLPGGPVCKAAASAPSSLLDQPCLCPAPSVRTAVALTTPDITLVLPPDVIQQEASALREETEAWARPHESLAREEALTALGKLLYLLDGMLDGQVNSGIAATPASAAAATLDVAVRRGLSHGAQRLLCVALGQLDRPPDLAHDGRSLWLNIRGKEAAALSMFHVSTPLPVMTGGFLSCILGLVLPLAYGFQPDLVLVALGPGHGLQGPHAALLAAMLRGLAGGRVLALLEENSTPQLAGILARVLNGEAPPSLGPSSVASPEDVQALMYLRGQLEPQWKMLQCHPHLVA

[4] = target: Histone deacetylase 4 (Homo sapiens, UniProt P56524); test: Inhibition of HDAC4 using p53 (379 to 382 residues) based fluorogenic peptide substrate
Chain of Histone deacetylase 4 (P56524 whole entry, the tested form may be a part): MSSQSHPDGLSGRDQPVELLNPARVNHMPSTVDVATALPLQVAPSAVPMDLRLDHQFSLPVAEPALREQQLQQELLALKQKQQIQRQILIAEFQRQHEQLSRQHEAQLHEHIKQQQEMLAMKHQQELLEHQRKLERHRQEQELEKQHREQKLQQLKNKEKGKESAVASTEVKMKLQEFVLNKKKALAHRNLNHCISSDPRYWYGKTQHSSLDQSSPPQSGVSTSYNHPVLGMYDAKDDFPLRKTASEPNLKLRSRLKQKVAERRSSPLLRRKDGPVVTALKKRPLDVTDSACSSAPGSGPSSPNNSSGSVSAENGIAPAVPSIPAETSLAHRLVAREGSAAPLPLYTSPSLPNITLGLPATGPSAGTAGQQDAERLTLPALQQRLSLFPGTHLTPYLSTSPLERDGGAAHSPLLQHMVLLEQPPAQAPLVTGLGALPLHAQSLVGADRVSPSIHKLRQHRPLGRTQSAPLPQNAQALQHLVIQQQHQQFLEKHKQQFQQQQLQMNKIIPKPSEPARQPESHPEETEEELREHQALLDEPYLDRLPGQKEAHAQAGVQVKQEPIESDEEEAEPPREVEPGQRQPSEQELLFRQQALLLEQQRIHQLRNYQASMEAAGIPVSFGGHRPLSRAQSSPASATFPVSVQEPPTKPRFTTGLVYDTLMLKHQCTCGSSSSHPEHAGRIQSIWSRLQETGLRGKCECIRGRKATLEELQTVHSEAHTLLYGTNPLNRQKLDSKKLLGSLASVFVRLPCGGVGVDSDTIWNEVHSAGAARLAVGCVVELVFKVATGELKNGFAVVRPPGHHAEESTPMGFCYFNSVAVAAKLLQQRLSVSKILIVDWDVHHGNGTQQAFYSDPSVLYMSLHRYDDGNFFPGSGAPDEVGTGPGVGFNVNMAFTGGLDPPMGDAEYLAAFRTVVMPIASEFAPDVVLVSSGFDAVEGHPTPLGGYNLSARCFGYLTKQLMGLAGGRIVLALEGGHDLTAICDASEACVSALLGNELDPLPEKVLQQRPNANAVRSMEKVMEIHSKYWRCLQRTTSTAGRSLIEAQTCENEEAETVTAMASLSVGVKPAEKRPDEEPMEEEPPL

[5] = target: Histone deacetylase 5 (Homo sapiens, UniProt Q9UQL6); test: Inhibition of HDAC5 using p53 (379 to 382 residues) based fluorogenic peptide substrate
Chain of Histone deacetylase 5 (Q9UQL6 whole entry, the tested form may be a part): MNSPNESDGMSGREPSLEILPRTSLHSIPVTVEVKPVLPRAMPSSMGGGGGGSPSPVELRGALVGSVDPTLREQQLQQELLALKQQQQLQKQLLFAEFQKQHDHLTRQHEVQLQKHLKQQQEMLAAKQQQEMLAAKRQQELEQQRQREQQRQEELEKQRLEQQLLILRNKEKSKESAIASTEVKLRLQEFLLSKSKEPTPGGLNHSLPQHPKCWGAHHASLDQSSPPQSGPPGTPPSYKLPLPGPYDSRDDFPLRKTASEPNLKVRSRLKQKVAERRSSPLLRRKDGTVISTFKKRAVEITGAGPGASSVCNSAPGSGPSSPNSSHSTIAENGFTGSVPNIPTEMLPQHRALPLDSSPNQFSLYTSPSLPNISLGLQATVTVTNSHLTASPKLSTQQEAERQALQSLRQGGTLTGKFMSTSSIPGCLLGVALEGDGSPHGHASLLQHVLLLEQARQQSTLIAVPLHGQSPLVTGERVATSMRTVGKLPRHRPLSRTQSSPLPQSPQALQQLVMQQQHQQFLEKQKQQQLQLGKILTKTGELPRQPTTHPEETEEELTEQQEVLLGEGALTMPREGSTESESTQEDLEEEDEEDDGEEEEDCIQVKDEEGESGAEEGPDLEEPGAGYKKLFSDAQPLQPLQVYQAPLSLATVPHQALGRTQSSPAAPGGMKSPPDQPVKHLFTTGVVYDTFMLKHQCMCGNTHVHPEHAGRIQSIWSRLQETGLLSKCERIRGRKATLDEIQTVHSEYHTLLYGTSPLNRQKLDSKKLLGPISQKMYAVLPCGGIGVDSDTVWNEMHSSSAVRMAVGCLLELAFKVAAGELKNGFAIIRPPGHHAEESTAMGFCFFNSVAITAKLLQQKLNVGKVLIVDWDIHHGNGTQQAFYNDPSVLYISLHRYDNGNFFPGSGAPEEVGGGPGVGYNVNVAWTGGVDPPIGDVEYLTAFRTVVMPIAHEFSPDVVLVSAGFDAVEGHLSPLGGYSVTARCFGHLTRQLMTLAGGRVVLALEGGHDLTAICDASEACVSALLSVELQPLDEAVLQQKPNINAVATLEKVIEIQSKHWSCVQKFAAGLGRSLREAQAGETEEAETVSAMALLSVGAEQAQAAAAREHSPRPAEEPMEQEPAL

[6] = target: T3, Histone deacetylase 11 (Homo sapiens, UniProt Q96DB2); test: Inhibition of HDAC11 using p53 (379 to 382 residues) based fluorogenic peptide substrate
T3 sequence (Q96DB2 whole entry): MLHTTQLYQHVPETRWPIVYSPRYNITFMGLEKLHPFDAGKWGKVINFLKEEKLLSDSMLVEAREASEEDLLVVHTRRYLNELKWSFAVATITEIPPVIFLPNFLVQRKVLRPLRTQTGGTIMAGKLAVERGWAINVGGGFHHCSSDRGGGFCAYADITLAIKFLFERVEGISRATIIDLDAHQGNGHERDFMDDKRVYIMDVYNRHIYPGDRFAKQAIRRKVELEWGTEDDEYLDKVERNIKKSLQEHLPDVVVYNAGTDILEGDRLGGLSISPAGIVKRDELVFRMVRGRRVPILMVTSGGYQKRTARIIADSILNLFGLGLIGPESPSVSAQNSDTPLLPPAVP

[7] = target: T4, Histone deacetylase 7 (Homo sapiens, UniProt Q8WUI4); test: Inhibition of HDAC7 using p53 (379 to 382 residues) based fluorogenic peptide substrate
T4 sequence (Q8WUI4 whole entry): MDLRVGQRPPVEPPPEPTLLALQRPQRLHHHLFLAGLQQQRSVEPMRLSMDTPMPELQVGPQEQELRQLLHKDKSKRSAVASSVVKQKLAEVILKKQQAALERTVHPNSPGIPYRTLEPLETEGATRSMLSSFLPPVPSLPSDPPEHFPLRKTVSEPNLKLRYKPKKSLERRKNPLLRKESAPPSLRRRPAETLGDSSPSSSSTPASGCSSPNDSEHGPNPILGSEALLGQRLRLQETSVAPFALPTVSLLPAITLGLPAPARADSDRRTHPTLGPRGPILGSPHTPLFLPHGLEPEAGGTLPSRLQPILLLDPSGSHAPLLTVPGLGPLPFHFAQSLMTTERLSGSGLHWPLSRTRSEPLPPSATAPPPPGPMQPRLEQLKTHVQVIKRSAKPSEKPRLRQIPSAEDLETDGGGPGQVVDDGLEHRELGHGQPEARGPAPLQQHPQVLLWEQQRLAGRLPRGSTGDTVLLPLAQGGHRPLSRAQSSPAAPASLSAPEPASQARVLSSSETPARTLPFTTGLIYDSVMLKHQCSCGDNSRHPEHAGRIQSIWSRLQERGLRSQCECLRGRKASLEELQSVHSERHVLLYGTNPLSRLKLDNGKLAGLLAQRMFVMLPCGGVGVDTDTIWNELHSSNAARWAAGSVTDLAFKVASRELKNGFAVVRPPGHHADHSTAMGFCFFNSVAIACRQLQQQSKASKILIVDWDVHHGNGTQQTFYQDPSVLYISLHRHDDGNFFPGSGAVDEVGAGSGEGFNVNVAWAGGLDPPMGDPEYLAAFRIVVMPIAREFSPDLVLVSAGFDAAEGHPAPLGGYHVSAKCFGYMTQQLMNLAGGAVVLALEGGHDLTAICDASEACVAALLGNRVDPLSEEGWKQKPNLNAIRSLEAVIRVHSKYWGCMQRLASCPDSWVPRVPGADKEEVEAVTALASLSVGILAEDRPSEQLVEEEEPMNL

[8] = target: Histone deacetylase 2 (Homo sapiens, UniProt Q92769); test: Inhibition of HDAC2 using p53 (379 to 382 residues) based fluorogenic peptide substrate
Chain of Histone deacetylase 2 (Q92769 whole entry, the tested form may be a part): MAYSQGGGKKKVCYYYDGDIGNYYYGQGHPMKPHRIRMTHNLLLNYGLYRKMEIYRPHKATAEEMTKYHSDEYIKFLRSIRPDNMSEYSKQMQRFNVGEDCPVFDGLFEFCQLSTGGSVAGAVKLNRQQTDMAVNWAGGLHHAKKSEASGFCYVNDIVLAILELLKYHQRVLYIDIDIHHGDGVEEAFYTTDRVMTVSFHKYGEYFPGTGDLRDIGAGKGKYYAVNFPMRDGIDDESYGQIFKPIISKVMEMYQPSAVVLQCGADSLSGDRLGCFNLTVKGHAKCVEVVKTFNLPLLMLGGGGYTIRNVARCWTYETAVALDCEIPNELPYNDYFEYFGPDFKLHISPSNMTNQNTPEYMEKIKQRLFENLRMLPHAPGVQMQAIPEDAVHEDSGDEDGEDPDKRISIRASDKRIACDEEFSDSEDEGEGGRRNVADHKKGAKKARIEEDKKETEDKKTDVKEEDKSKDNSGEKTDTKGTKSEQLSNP

[9] = target: Histone deacetylase 1 (Homo sapiens, UniProt Q13547); test: Inhibition of HDAC1 using p53 (379 to 382 residues) based fluorogenic peptide substrate
Chain of Histone deacetylase 1 (Q13547 whole entry, the tested form may be a part): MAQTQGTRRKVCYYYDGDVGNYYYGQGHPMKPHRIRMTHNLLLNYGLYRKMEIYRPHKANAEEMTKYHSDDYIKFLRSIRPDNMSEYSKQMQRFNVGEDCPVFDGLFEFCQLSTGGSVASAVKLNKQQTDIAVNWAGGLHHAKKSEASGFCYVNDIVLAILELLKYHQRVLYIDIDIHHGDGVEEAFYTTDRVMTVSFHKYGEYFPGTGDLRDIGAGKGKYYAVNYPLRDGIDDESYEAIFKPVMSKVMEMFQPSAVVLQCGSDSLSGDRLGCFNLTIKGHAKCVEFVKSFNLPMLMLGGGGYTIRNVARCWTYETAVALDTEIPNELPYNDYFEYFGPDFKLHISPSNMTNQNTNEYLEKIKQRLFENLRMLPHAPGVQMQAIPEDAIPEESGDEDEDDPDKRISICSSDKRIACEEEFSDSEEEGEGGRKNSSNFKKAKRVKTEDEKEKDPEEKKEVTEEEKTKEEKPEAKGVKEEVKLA

Chain of Histone deacetylase 9 (Q9UKV0 whole entry, the tested form may be a part): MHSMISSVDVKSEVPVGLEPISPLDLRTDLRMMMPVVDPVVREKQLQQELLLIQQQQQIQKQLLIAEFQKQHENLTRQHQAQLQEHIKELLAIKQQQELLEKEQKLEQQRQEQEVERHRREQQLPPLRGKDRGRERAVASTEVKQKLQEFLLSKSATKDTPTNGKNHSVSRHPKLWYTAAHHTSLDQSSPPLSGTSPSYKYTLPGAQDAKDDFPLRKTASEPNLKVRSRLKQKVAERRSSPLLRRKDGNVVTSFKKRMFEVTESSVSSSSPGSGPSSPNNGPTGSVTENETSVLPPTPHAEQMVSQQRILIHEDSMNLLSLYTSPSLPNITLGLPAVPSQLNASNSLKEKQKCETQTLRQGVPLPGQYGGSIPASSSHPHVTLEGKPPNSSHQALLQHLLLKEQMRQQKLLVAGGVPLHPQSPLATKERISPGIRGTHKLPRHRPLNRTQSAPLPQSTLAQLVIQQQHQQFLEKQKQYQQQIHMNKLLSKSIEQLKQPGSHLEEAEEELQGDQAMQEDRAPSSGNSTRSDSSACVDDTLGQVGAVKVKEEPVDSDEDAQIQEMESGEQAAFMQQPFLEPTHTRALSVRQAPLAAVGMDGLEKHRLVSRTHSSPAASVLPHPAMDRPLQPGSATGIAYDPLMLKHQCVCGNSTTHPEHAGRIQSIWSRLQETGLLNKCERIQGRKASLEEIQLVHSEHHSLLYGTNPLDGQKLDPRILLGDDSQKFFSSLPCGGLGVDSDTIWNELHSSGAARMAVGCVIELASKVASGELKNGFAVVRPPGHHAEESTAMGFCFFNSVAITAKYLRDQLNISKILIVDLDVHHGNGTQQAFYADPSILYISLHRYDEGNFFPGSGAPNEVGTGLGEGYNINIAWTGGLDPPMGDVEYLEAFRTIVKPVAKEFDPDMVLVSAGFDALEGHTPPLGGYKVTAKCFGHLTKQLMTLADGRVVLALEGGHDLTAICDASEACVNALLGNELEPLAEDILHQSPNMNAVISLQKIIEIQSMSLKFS

SMILES	IC50 [1] [µM]	IC50 [2] [µM]	IC50 [3] [µM]	IC50 [4] [µM]	IC50 [5] [µM]	IC50 [6] [µM]	IC50 [7] [µM]	IC50 [8] [µM]	IC50 [9] [µM]
CN1C[C@@H](C(=O)Nc2ccc(Cl)cc2)[C@H](c2ccc(/C=C/C(=O)Nc3ccccc3N)cc2)C1	13	> 30	1.6	36	1.1	20	> 30	0.27	0.14
CN1C[C@H](C(=O)Nc2ccc(Cl)cc2)[C@@H](c2ccc(/C=C/C(=O)Nc3ccccc3N)cc2)C1	16	> 30	3.4	13	3.5	14	> 30	0.25	0.06
CN1C[C@H](C(=O)Nc2ccc(Cl)cc2)[C@@H](c2ccc(/C=C/C(=O)Nc3ccccc3N)cc2F)C1 (racemic)	43	> 30	5	46	5.3	> 30	> 30	0.22	0.1
